The structures appear in SMILES notation. Where “and” joins values, the source holds several entries; their conditions need not be identical. Identical values can stand only once.

In this series the test system is HeLa cells. Nature of the series: ICP-OES analysis of Pt in HeLa cells (uptake). In kind it is cell-based. To be noted: for Amount of Pt / Total amount of Pt: Supplementary Table S1. On the procedure: Supplementary Table 1. ICP-OES analysis of Pt in HeLa cells. a Pt drugs Pt element per cell Percentage of Pt element […]
a HeLa cells were untreated or pre-treated with Na3VO4 (10 mM) for 20 min and then incubated with indicated Pt drug (10 μM) for 1 h. Then, the cells were trypsinized, collected, and the cell numbers were counted and digested with trace metal concentrated HNO3 (65~70%) and HCl (36~38%). The amount of Pt element was determined by […]
b Pt per cell represents the average amount of Pt element in one HeLa cell, which was calculated by dividing the total amount of Pt element in cells by the cell number. c Percentage of Pt taken up by cells was calculated by dividing the total amount of Pt elements in cells by the amount of Pt drugs added. Values denote mean ± s.d. (n = 3 independent experiments). […]
The cell […]
lysates were separated according to a reported fragmentation procedure to obtained different cell fractions: pellet sample N (nuclei) was separated by 600 g for 10 min; pellet sample L (lysosomes and mitochondria) separated by 15000 g for 5 min; pellet sample M (plasma membrane) separated 100000g for 60 min and the remaining supernatant was soluble portion cytoplasm named as cell pellet C (cytosol) Pellets N, L, and M were all re-dispersed in 200 μL of D.I. water. Then, the solutions were collected and dropped on a carbon-coated copper grid, followed by freeze-drying respectively. The samples were then examined in a JEM-2800 Transmission Electron […]
Quantitative analysis of Pt in HeLa cells and different subcellular organelles. HeLa […]
cells were seeded in 10-cm dishes at a density of 4×10^6 cells/well and allowed to grow overnight. The cells were incubated with P-CyPt (10 μM), PtIVNPs (10 μM) and CDDP (10 μM) for 1 h, respectively. In P-CyPt + Na3VO4 group, HeLa cells were first incubated with Na3VO4 (10 mM) for 20 min, and then incubated with P-CyPt (10 μM) for another 60 min. After being washed with PBS for three times, the cells were trypsinized, centrifuged and counted. For Pt distribution analysis, the cells were treated with P-CyPt (10 μM) or CDDP (10 μM) for 1 h, and then washed with PBS for three times, followed by incubation with fresh medium for another 24 h. After that, cells were washed gently with 2 mL PBS once. The cells were trypsinized, centrifuged and counted. The cell lysates were separated according to a reported fragmentation procedure to obtained different cell fractions, including N (nuclei), M (plasma membrane), L (lysosomes and mitochondria) and C (cytosol). The Cells and different cell fractions were digested with concentrated HNO3 (65~70%) and HCl (36~38%) at 90 °C for 24 h. The solution was diluted to 5 mL 2% HNO3 and 5% HCl solution, and the concentration of Pt element was measured by ICP-OES, which was further applied to calculate the amount of Pt in cells and subcellular organelles.
Flow cytometry analysis of HeLa cell death. Approximately 2×10^5 cells/well HeLa cells in 2 mL DMEM medium were seeded onto 6-well plates and allowed to grow overnight. The medium was replaced with 1 mL of fresh medium containing P-CyPt (20 μM), PtIVNPs (20 μM) and CDDP (20 μM), respectively. After 2 h incubation, medium was removed and cells were washed with PBS for three times. Then, cells were incubated with fresh medium for another 48 h to induce different levels of apoptosis.
After gentle washing with PBS (×1), the cells were detached from the plates with trypsin (500 μL per well), and the cell pellets were collected after centrifugation at […] at 4 °C for 4 min. After washing with PBS, the pellets were re-suspended in 500 μL PBS buffer and stained with the annexin V-FITC/PI double staining apoptosis detection kit for flow cytometry. All assays were performed according to the manufacturer instructions, and the cell population was analyzed by annexin V-FITC and PI channels. The count number for each flow cytometry analysis was ~5000 to […]

Consider `CC1(C)C(/C=C/C2=C3Oc4cc(OP(=O)(O)O)c(Cl)cc4C=C3CCC2)=[N+](CCCNC(=O)[C@@H](Cc2ccccc2)NC(=O)[C@@H](Cc2ccccc2)NC(=O)CCC(=O)[O][Pt]([NH2])([NH2])([OH])([Cl])[Cl])c2ccccc21` [P-CyPt], for which the “Pt element per cell” value (HeLa cells, Pt drug 10 μM, 1 h, ICP-OES) is 24.60 ± 3.5 fmol/cell. The “Percentage of Pt element taken up by cells” value (HeLa cells, Pt drug 10 μM, 1 h, of Pt drug added) came to 36.9 ± 5.3%. In addition, the “Amount of Pt” value runs as follows: (individual samples) 20.8193 fmol/cell and 25.1404 fmol/cell and 27.8508 fmol/cell; (mean of 3 samples) 24.6035 fmol/cell. The “Total amount of Pt” value reads like this: (individual samples) 31.255% and 37.742% and 41.811%; (mean of 3 samples) 36.936%.

`CC1(C)C(/C=C/C2=C3Oc4cc(O)c(Cl)cc4C=C3CCC2)=[N+](CCCNC(=O)[C@@H](Cc2ccccc2)NC(=O)[C@@H](Cc2ccccc2)NC(=O)CCC(=O)[O][Pt]([NH2])([NH2])([OH])([Cl])[Cl])c2ccccc21` [CyPt]: for the setting “individual samples”, the “Amount of Pt” value is 1.96 fmol/cell and 1.6407 fmol/cell and 1.595 fmol/cell; the “Total amount of Pt” value was 2.9% and 2.428% and 2.36%. For the setting “mean of 3 samples”, the “Amount of Pt” value worked out at 1.7317 fmol/cell and the “Total amount of Pt” value was determined as 2.563%.

The values are drawn from PMC9925730, “Controlled sequential in situ self-assembly and disassembly of a fluorogenic cisplatin prodrug for cancer theranostics” (Nature Communications, 2023).
